Measured values reported in ChEMBL document CHEMBL4152362, “Discovery of DS-6930, a potent selective PPARγ modulator. Part II: Lead optimization” (Bioorg Med Chem, 2018).
Converted amounts (≈) assume the structure as drawn. The source made the active and inactive calls. No cut-off for these calls is given here.

What was measured:
[1] = Aqueous thermodynamic solubility of the compound in pH 6.8 solution up to 4 hrs by HPLC-UV analysis; format: physicochemical; conditions: read-out: Therm_solubility
[2] = target: T1, Peroxisome proliferator-activated receptor alpha (Homo sapiens, UniProt Q07869); experiment: Agonist activity at recombinant human GAL4-DBD fused PPARalpha LBD expressed in COS7 cells after 24 hrs by luciferase reporter gene assay; format: cell-based
T1 sequence (Q07869 whole entry): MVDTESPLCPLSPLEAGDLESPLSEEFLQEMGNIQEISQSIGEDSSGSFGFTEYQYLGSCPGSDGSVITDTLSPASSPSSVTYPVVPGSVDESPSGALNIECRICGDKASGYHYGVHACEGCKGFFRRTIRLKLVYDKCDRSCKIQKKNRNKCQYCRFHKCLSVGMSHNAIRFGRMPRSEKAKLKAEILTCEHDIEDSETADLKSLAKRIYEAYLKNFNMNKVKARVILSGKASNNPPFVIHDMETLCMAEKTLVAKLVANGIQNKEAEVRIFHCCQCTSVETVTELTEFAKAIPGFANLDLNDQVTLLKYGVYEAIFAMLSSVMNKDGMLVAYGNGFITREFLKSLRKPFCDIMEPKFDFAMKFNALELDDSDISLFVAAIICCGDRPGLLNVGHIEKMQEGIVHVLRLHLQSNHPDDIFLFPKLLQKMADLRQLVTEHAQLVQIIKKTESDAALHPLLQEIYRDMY

[3] = 1-octanol/PBS distribution co-efficient, log D of the compound at […] at pH 7.4 after 30 mins by HPLC-MS/MS method; format: physicochemical
[4] = target: T2, Peroxisome proliferator-activated receptor gamma (Homo sapiens) (UniProt P37231); experiment: Agonist activity at recombinant human GAL4-DBD fused PPARgamma LBD expressed in COS7 cells at 10 uM after 24 hrs by luciferase reporter gene assay relative to rosiglitazone; format: cell-based
T2 sequence (whole entry): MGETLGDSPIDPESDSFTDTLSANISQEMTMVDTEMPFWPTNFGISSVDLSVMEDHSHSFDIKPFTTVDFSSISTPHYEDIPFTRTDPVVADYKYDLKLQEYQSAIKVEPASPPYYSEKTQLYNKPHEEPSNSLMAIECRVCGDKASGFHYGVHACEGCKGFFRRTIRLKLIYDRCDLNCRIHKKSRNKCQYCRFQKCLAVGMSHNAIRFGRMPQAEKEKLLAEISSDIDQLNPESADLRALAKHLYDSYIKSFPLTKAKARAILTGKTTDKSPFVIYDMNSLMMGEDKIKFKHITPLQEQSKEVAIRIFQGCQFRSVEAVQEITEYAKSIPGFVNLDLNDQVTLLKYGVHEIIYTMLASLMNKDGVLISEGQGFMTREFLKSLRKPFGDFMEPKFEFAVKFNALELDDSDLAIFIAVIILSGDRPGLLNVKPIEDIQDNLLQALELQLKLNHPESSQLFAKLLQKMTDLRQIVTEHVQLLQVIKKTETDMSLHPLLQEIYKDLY

[5] = target: T3, Peroxisome proliferator-activated receptor alpha (Homo sapiens) (UniProt Q07869); experiment: Agonist activity at recombinant human GAL4-DBD fused PPARalpha LBD expressed in COS7 cells at 10 uM after 24 hrs by luciferase reporter gene assay relative to 2-(4-tert-Butylphenoxy)-3-[4-[2-[(4-pyridin-2-ylbenzoyl)amino]ethoxy] phenyl]propionic acid; format: cell-based
T3 sequence (whole entry): T1 sequence (Q07869 whole entry)

[6] = Metabolic stability in human liver microsomes after 0.5 hrs; format: ADME, microsome; conditions: read-out: Stability
[7] = target: T4, Peroxisome proliferator-activated receptor gamma (Homo sapiens, UniProt P37231); experiment: Agonist activity at recombinant human GAL4-DBD fused PPARgamma LBD expressed in COS7 cells after 24 hrs by luciferase reporter gene assay; format: cell-based
T4 sequence (P37231 whole entry): T2 sequence (whole entry)

[8] = Apparent permeability of the compound after 4 hrs by PAMPA; format: ADME
[9] = target: T5, Peroxisome proliferator-activated receptor delta (Homo sapiens) (UniProt Q03181); experiment: Agonist activity at PPARdelta (unknown origin) at 10 uM
T5 sequence (whole entry): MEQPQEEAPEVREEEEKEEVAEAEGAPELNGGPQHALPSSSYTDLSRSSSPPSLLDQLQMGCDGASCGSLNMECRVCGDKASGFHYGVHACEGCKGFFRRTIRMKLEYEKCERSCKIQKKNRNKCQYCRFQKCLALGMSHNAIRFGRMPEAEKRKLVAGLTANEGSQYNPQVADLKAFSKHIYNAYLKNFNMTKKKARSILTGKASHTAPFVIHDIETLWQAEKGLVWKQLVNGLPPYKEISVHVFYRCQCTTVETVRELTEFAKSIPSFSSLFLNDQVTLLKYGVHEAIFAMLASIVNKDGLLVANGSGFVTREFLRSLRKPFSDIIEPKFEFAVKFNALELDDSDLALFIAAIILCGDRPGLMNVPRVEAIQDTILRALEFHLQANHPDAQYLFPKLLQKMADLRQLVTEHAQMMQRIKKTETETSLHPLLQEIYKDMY

Row | solubility thermodynamic at 4 h [1] [µg/mL] | EC50 [2] [µM] | logD at 0.5 h [3] | Emax [4] [%] | Emax [5] [%] | remaining at 0.5 h [6] [%] | EC50 [7] [µM] | Papp at 4 h [8] [×10⁻⁶ cm/s] | Activity [9] | SMILES
1 | 7.1 (≈ 18 µM) | > 10 | 0.6 | 80 | 3 | 100 | 0.28 | 3.9 | – | Cn1c(COc2cccc(C(=O)O)c2)nc2ccc(Oc3ncccc3F)cc21
2 | 14 (≈ 34.4 µM) | > 10 | 1.1 | 100 | 2 | 93 | – | 8.3 | – | Cc1cc(F)cnc1Oc1ccc2nc(COc3cccc(C(=O)O)c3)n(C)c2c1
3 | 37 (≈ 95 µM) | > 10 | 0.9 | 83 | 8 | 100 | 0.351 | 6 | – | Cc1cccnc1Oc1ccc2nc(COc3cccc(C(=O)O)c3)n(C)c2c1
4 | 11 (≈ 28 µM) | – | 1.5 | 62 | 55 | 78 | 1.06 | 8.6 | inactive | Cn1c(COc2cccc(C(=O)O)c2)nc2ccc(Oc3ccc(F)cc3)nc21
5 | 360 (≈ 924 µM) | > 10 | 1 | 80 | 6 | 80 | 0.746 | 6.8 | inactive | Cc1ccc(Oc2cc3c(cn2)nc(COc2cccc(C(=O)O)c2)n3C)cc1
6 | 1.7 (≈ 3.97 µM) | > 10 | 2.2 | 88 | 45 | 92 | 0.269 | 25.6 | inactive | Cn1c(COc2cccc(C(=O)O)c2)nc2ccc(Oc3ccc(Cl)c(F)c3)nc21
7 | 79 (≈ 189 µM) | > 10 | 0.6 | 59 | 4 | 100 | 0.335 | 3.6 | inactive | Cn1c(COc2cccc(C(=O)O)c2)nc2cnc(Oc3ccc4c(c3)OCC4)cc21
8 | 7.7 (≈ 18.8 µM) | > 10 | 1.2 | 67 | 13 | 98 | 0.736 | 7.6 | – | Cn1c(COc2cccc(C(=O)O)c2)nc2ccc(Oc3cccc(Cl)n3)cc21
9 | 0.9 (≈ 2.23 µM) | > 10 | 2.3 | 75 | 17 | 63 | 0.101 | 28.8 | inactive | Cc1ccc(Oc2ccc3nc(COc4cccc(C(=O)O)c4)n(C)c3n2)c(C)c1
10 | 0.5 (≈ 1.24 µM) | > 10 | 2.3 | 83 | 19 | 71 | 0.041 | 17.4 | inactive | Cc1cc(C)cc(Oc2ccc3nc(COc4cccc(C(=O)O)c4)n(C)c3n2)c1
11 | 11 (≈ 26.8 µM) | > 10 | 1.2 | 93 | 11 | – | 0.615 | 10.3 | – | Cn1c(COc2cccc(C(=O)O)c2)nc2ccc(Oc3cc(Cl)ccn3)cc21
12 | 62 (≈ 165 µM) | > 10 | 0.4 | 74 | 1 | 100 | 1.13 | 2.2 | – | Cn1c(COc2cccc(C(=O)O)c2)nc2ccc(Oc3ccccn3)cc21
13 | 31 (≈ 79.6 µM) | > 10 | 0.9 | 42 | 4 | 94 | 0.129 | 4.8 | – | Cc1ccc(Oc2ccc3nc(COc4cccc(C(=O)O)c4)n(C)c3c2)nc1
14 | 5.2 (≈ 12.8 µM) | – | 2.1 | 80 | 56 | 96 | 0.05 | 14.8 | inactive | Cc1ccc(Oc2ccc3nc(COc4cccc(C(=O)O)c4)n(C)c3n2)cc1F
15 | 11 (≈ 25.7 µM) | > 10 | 1.4 | 73 | 15 | 98 | 1.17 | 11.2 | inactive | Cn1c(COc2cccc(C(=O)O)c2)nc2cnc(Oc3ccc(Cl)c(F)c3)cc21
16 | 92 (≈ 236 µM) | > 10 | 0.8 | 78 | 1 | 100 | 1.89 | 2.7 | – | Cc1cccc(Oc2ccc3nc(COc4cccc(C(=O)O)c4)n(C)c3c2)n1
17 | – | – | – | 74 | 4 | – | – | – | – | Cc1cnc(Oc2ccc3nc(COc4cccc(C(=O)O)c4)n(C)c3c2)c(F)c1
18 | – | – | – | 65 | – | – | 12.4 | – | – | COC(=O)c1cccc(OCc2nc3ccc(Oc4ccccc4)nc3n2C)c1
19 | 85 (≈ 211 µM) | > 10 | 1.4 | 117 | 7 | – | 0.717 | 11 | – | Cc1ccc(C)c(Oc2ccc3nc(COc4cccc(C(=O)O)c4)n(C)c3c2)n1
20 | 79 (≈ 201 µM) | > 10 | 0.6 | 87 | 5 | – | 0.808 | 4.7 | – | Cn1c(COc2cccc(C(=O)O)c2)nc2ccc(Oc3ccc(F)cn3)cc21
21 | 16 (≈ 39.7 µM) | > 10 | 2.2 | 74 | 30 | 73 | 0.09 | 12.4 | inactive | Cc1ccc(Oc2ccc3nc(COc4cccc(C(=O)O)c4)n(C)c3n2)cc1C
22 | 160 | – | 1.2 | 61 | – | 100 | – | – | inactive | Cl.Cl.Cn1c(COc2cccc(C(=O)O)c2)nc2ccc(Oc3ccccc3)nc21

Row | SMILES | solubility thermodynamic at 4 h [1] [µg/mL] | EC50 [2] [µM] | logD at 0.5 h [3] | Emax [4] [%] | Emax [5] [%] | remaining at 0.5 h [6] [%] | EC50 [7] [µM] | Papp at 4 h [8] [×10⁻⁶ cm/s] | Activity [9]
23 | Cn1c(COc2cccc(C(=O)O)c2)nc2ccc(Oc3ncccc3Cl)cc21 | 15 (≈ 36.6 µM) | > 10 | 1.1 | 93 | 6 | 99 | 0.2 | 8.1 | –
24 | Cc1ccnc(Oc2ccc3nc(COc4cccc(C(=O)O)c4)n(C)c3c2)c1 | 33 (≈ 84.7 µM) | > 10 | 0.8 | 41 | 2 | – | 0.458 | 3.5 | –
25 | Cc1ccc(Oc2ccc3nc(COc4cccc(C(=O)O)c4)n(C)c3c2)nc1C | 190 (≈ 471 µM) | > 10 | 1.3 | 81 | 8 | 100 | 0.176 | 7.7 | –
